In PMC6759758, “Cofactor Selectivity in Methylmalonyl Coenzyme A Mutase, a Model Cobamide-Dependent Enzyme” (mBio, 2019):
Read-outs that look alike come from different tables or passages of the source.

How the values were obtained:
[1] = biological target: T1, SmMCM (methylmalonyl-CoA mutase from S. meliloti) (Rhizobium meliloti, UniProt O86028); test: biochemical; type: binding, Sinorhizobium meliloti; conditions: for binding to SmMCM detected by fluorescence quench (in words): low-micromolar / micromolar concentrations
T1 construct: made in house; host or cells: E. coli BL21(DE3)pLysS
T1 sequence (O86028 2-712): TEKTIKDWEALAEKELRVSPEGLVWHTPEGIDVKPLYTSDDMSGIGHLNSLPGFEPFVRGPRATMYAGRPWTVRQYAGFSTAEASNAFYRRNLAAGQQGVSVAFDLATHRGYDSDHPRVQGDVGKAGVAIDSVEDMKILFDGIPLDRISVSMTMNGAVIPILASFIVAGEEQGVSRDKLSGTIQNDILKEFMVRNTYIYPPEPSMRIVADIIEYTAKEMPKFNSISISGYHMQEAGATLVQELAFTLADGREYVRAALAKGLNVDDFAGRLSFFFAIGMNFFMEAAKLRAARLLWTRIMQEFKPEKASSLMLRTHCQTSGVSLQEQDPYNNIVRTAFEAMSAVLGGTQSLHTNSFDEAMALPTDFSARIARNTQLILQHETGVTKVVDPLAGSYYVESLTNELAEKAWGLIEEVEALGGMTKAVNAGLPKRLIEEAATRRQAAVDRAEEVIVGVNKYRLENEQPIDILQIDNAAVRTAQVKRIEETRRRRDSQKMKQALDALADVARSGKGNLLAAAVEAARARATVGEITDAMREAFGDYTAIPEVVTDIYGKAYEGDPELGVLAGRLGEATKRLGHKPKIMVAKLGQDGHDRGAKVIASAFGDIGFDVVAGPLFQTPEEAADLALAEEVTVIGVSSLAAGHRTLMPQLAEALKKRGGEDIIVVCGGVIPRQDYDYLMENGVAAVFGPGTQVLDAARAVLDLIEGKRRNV
Experimental: (§1) All steps involving cobamides were conducted in the dark. The plate was centrifuged for 1 min at 3,800 rpm to level the surface of the liquid in each well. The plate was then incubated for 40 min at 30°C to allow binding, with a brief shaking step after 30 min. […] Following incubation, fluorescence emission at 340 nm (5-nm slit width) was measured upon excitation at 282 nm (5-nm slit width) using a Tecan Infinite M1000 Pro plate reader. Fluorescence, normalized to the initial value, was plotted as a function of cobamide concentration, and fitted to the following equation ([134]): F/F0=1+ΔFmax/F0([E]+[L]+Kd)−([E]+[L]+Kd)^2−4[E][L]/2[E] where F is fluorescence, F0 is initial fluorescence, [E] is total enzyme concentration, [L] is total ligand concentration, and Kd is the binding dissociation constant.

[2] = biological target: T2, SmMCM (Rhizobium meliloti, UniProt O86028); test: Filtration binding assay; parameters: species or system Sinorhizobium meliloti; conditions: 10 μM cobamide, 15 μM SmMCM
T2 construct: made in house; host or cells: E. coli BL21(DE3)pLysS
T2 sequence (O86028 2-712): T1 sequence (O86028 2-712)
Experimental: Cobamides (10 μM) with and without MCM (15 μM) were incubated in 100 mM Tris, 50 mM phosphate, pH 7.5, at 30°C for 40 min, transferred to Nanosep 10K Omega centrifugal devices (Pall Corporation), and centrifuged for 5 min at 13,900 × g to separate unbound cobamides from enzyme-bound cobamides. The UV-Vis spectra of the filtrates were recorded on a BioTek Synergy 2 plate reader.

[3] = system: MCM; parameters: method as in PMID 10563814; conditions: cited from earlier work
[4] = biological target: T3, EcMCM (E. coli MCM) (Escherichia coli, UniProt P27253); test: Fluorescence binding assay, EcMCM; conditions: read-out: Kd EcMCM; fitted curve, error = standard error of the curve fit
T3 construct: 6xHis (N); made in house; host or cells: E. coli BL21(DE3)
Experimental: as §1

[5] = biological target: VpMCM (V. parvula MCM) (Veillonella parvula, UniProt A0A124EFR6); test: Fluorescence binding assay, VpMCM; conditions: fitted curve, error = standard error of the curve fit; equimolar α and β subunits
Experimental: The α subunit of VpMCM (encoded by Vpar_RS09005) was expressed with an N-terminal 6×His tag from the pET-Duet expression vector in E. coli BL21(DE3). Protein expression was induced with 520 μM IPTG for 6 h at 30°C. The protein was batch purified by nickel affinity and subsequently purified by FPLC using a HiTrapQ column with an NaCl gradient from 50 to 500 mM in […], pH 8.0, 10% glycerol. The β subunit of VpMCM (encoded by Vpar_RS09000) was expressed separately with an N-terminal 6×His tag from the pET-Duet expression vector in E. coli BL21(DE3). […] Purified protein was dialyzed into 25 mM Tris-HCl, pH 8.0, 300 mM NaCl, 10% glycerol, and 1 mM β-mercaptoethanol. Concentration of pure α and β subunits (Fig. S7) was determined by absorbance at 280 nm (A280) using the theoretically calculated extinction coefficients 75,290 M^−1 cm^−1 and 74,260 M^−1 cm^−1, respectively ([125]). Equimolar amounts of α and β subunits were combined during the setup of fluorescence binding assays.
as §1

[6] = biological target: T4, SmMCM (Sinorhizobium meliloti MCM) (Rhizobium meliloti, UniProt O86028); test: Thiokinase-coupled spectrophotometric MCM activity assay; type: biochemical; conditions: SmMCM 50 nM reconstituted with 2 μM cobamide; (R)-methylmalonyl-CoA to succinyl-CoA, steady state, 30°C
T4 construct: made in house; host or cells: E. coli BL21(DE3)pLysS
T4 sequence (O86028 2-712): T1 sequence (O86028 2-712)
Experimental: Final concentrations of reagents in the assays were as follows: Tris-phosphate buffer (pH 7.5), 100 mM Tris, 50 mM phosphate; dithionitrobenzoate (DTNB), 400 μM; ADP, 1 mM; MgCl2, 10 mM; (R)-methylmalonyl-CoA, 0 to 4 mM; thiokinase, 5 μM; MCM, 50 nM; and cobamides, 2 μM.
Three separate mixes were prepared, all in 1× Tris-phosphate buffer: an assay mix containing DTNB, ADP, and MgCl2; a substrate mix containing (R)-methylmalonyl-CoA; and an enzyme mix containing thiokinase, MCM, and cobamides. All steps involving cobamides were conducted in the dark. The assay and enzyme mixes were prepared as a master mix and aliquoted into 96-well plates; substrate mixes were prepared in individual wells, in triplicate. All components were incubated at 30°C for 40 min to equilibrate temperature and allow prebinding of cobamides and MCM. After incubation, one replicate at a time, the substrate mix was added to the assay mix, followed by the enzyme mix. Absorbance at 412 nm (A412) was recorded immediately after addition of enzyme and for 1 to 3 min, every 3 s, on a BioTek Synergy 2 plate reader. The increase in A412 in reaction mixtures lacking substrate was subtracted from all readings, to account for reactivity of DTNB with thiols on protein surfaces.

[7] = system: MCM; parameters: method as in PMID 14235521; conditions: cited from earlier work
[8] = system: P. shermanii MCM; parameters: method as in PMID 11031263; conditions: cited from earlier work

Chain of VpMCM (V. parvula MCM) (A0A124EFR6 entry or part of it): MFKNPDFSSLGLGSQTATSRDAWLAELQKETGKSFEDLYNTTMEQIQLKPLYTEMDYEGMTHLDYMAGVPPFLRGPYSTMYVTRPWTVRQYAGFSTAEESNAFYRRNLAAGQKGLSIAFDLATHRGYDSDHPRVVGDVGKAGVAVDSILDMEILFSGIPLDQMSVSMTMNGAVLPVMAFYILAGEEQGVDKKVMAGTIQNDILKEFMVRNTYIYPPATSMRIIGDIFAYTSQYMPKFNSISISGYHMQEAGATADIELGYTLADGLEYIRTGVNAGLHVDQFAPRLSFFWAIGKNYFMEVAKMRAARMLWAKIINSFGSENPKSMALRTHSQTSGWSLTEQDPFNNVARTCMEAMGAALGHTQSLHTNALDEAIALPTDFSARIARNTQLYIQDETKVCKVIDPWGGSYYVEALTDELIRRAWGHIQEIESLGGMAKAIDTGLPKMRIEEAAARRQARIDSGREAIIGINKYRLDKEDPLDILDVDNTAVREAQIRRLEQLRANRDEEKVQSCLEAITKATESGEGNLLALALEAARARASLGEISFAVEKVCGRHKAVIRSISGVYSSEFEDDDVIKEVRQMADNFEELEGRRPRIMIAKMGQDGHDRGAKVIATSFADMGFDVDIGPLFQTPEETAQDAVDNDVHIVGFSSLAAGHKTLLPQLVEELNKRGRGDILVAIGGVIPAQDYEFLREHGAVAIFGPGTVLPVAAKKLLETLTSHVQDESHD
T3 sequence (P27253 whole entry): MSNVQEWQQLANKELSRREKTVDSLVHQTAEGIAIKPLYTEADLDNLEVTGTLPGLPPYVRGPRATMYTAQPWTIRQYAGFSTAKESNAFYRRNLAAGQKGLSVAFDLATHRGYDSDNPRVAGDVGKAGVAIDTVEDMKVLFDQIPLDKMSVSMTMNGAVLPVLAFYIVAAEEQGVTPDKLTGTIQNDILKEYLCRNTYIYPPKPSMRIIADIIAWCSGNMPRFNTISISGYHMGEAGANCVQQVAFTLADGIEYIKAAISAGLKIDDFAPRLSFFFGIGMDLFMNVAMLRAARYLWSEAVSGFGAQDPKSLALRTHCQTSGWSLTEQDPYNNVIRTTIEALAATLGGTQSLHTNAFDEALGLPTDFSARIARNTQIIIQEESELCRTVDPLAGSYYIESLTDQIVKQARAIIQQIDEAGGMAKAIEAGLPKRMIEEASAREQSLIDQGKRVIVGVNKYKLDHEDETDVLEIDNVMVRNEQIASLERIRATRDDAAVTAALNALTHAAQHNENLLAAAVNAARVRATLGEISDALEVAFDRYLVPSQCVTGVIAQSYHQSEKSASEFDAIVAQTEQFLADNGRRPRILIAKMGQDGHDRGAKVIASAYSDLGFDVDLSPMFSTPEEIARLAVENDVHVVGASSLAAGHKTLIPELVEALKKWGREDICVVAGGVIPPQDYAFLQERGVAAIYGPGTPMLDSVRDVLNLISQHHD

| Compound | binding to SmMCM detected by fluorescence quench (in words) [1] | binding to SmMCM in filtration-based assay [2] | Kd [4] [nM] | Kd [5] [µM] | MCM activity in S. meliloti bacteroids [7] | further results |
| --- | --- | --- | --- | --- | --- | --- |
| 5-Hydroxybenzimidazolylcobamide [Ado[5-OHBza]Cba] | no binding | little to no binding |  |  |  |  |
| C/C1=C2/[N-][C@H]([C@H](CC(N)=O)[C@@]2(C)CCC(=O)NC[C@@H](C)O)[C@]2(C)N=C(/C(C)=C3N=C(/C=C4N=C1[C@@H](CCC(N)=O)C\4(C)C)[C@@H](CCC(N)=O)[C@]\3(C)CC(N)=O)[C@@H](CCC(N)=O)[C@]2(C)CC(N)=O.[CH2-][C@H]1O[C@@H](n2cnc3c(N)ncnc32)[C@H](O)[C@@H]1O.[Co+3] [Ado-cobinamide, adenosylcobinamide, reference compound] |  |  |  |  |  | Kd [1]: 800 ± 200 nM; support of MCM activity in vitro [3]: does not support MCM activity |
| C/C1=C2/[N-][C@H]([C@H](CC(N)=O)[C@@]2(C)CCC(=O)NC[C@@H](C)OP(=O)([O-])O[C@H]2[C@@H](O)[C@@H](n3cnc4cc(C)c(C)cc43)O[C@@H]2CO)[C@]2(C)N=C(/C(C)=C3N=C(/C=C4N=C1[C@@H](CCC(N)=O)C\4(C)C)[C@@H](CCC(N)=O)[C@]\3(C)CC(N)=O)[C@@H](CCC(N)=O)[C@]2(C)CC(N)=O.[CH2-][C@H]1O[C@@H](n2cnc3c(N)ncnc32)[C@H](O)[C@@H]1O.[Co+3] [AdoCbl, adenosylcobalamin, reference compound] |  |  | 600 ± 100 | 2.8 ± 0.6 | highest | Kd ([1]; SmMCM 0.2 μM, pH 7.5, 30°C, average and standard deviation for three or more independent experiments, n. d. = binding too weak to determine Kd): 30 ± 20 nM; kcat [6]: 26 ± 1 s⁻¹ |
| C/C1=C2/[N-][C@H]([C@H](CC(N)=O)[C@@]2(C)CCC(=O)NC[C@@H](C)OP(=O)([O-])O[C@H]2[C@@H](O)[C@@H](n3cnc4ncnc(N)c43)O[C@@H]2CO)[C@]2(C)N=C(/C(C)=C3N=C(/C=C4N=C1[C@@H](CCC(N)=O)C\4(C)C)[C@@H](CCC(N)=O)[C@]\3(C)CC(N)=O)[C@@H](CCC(N)=O)[C@]2(C)CC(N)=O.[CH2-][C@H]1O[C@@H](n2cnc3c(N)ncnc32)[C@H](O)[C@@H]1O.[Co+3] [Ado[Ade]Cba, Adeninylcobamide] | did not bind to any significant extent | did not bind to any significant extent | 1600 ± 400 | 9 ± 4 | absent |  |
| C/C1=C2/[N-][C@H]([C@H](CC(N)=O)[C@@]2(C)CCC(=O)NC[C@@H](C)OP(=O)([O-])OP(=O)([O-])OC[C@H]2O[C@@H](n3cnc4c(=O)[nH]c(N)nc43)[C@H](O)[C@@H]2O)[C@]2(C)N=C(/C(C)=C3N=C(/C=C4N=C1[C@@H](CCC(N)=O)C\4(C)C)[C@@H](CCC(N)=O)[C@]\3(C)CC(N)=O)[C@@H](CCC(N)=O)[C@]2(C)CC(N)=O.[CH2-][C@H]1O[C@@H](n2cnc3c(N)ncnc32)[C@H](O)[C@@H]1O.[Co] [adenosylcobinamide-GDP] |  |  |  |  |  | support of P. shermanii MCM activity compared to AdoCbl [8]: only slight catalytic impairment |
